Assay [1] deals with T1, Tyrosine-protein kinase receptor UFO (Homo sapiens, UniProt P30530).
T1 sequence (P30530 whole entry): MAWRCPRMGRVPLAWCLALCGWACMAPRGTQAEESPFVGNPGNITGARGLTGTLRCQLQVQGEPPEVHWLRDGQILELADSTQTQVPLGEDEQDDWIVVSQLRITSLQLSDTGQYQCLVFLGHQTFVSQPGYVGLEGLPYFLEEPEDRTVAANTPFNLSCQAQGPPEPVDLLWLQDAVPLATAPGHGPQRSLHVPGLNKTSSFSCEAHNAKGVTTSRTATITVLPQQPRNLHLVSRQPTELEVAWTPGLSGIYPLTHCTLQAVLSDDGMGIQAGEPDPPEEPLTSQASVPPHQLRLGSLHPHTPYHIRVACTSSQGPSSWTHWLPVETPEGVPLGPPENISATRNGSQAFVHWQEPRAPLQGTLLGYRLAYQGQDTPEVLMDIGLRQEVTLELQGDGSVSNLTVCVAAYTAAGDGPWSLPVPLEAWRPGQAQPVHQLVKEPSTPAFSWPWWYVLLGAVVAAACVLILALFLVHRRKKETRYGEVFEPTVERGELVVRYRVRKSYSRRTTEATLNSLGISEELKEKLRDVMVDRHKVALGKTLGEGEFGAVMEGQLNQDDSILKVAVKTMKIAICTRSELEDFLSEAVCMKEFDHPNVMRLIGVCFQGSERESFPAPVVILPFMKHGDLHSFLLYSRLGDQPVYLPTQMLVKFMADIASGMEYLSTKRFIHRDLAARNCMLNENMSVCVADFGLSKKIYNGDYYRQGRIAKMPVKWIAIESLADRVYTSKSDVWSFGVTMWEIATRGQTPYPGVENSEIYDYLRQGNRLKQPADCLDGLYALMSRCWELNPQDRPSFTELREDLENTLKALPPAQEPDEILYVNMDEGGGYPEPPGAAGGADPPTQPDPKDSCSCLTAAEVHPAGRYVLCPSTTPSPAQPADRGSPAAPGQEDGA
The assay can be described thus: Inhibition of recombinant human His-tagged AXL expressed in insect cells after 60 mins by Z'-LYTE assay.

For assay [2], the target named is Tyrosine-protein kinase receptor UFO (Homo sapiens) (UniProt P30530). The note with it: 1 uM.
Description: Inhibition of recombinant human His-tagged AXL expressed in insect cells at 1 uM after 60 mins by Z'-LYTE assay relative to control

Some results are limits rather than exact numbers.

For 3 compounds, IC50 and inhibition results are on record in ChEMBL document CHEMBL4000235, “Discovering novel 7-azaindole-based series as potent AXL kinase inhibitors” (Bioorg Med Chem Lett, 2017).

As a reminder, the IC50 is the concentration that gives 50% inhibition. With `O=C(O)c1ccc(-c2c[nH]c3ncc(-c4ccccc4)cc23)cc1`, the IC50 in assay [1] was determined as 182 nM. Same read-out and setting: the figure for `O=C(O)c1cc(-c2c[nH]c3ncc(-c4ccccc4)cc23)ccc1F` is over 1000 nM. As usually defined, the inhibition is how much of the control response was suppressed. Lower therefore signals little suppression. In the case of `c1ccc(-c2cnc3[nH]cc(-c4ccc(-c5nnn[nH]5)cc4)c3c2)cc1`, in assay [1], the IC50 came out at 524 nM. Further, the inhibition in assay [2] was determined as 75%.
